Values of other authors as cited in patent publication EP2934488B1, “A PHARMACEUTICAL COMPOSITION CONTAINING CANDESARTAN CILEXETIL AND AMLODIPINE” (Adamed Pharma S.A., priority 2012, dated 2014).

Legend:
[1] = not given; remark: listed apart in the source

solubility in water | absolute bioavailability ([1]; in vivo) | candesartan physiologically available ([1]; candesartan included in commercial formulations, estimated) | SMILES
slightly soluble in water | 64-90% | – | CCOC(=O)C1=C(COCCN)NC(C)=C(C(=O)OC)C1c1ccccc1Cl (racemic) [Amlodipine benzenesulfonate, 3-ethyl 5-methyl (4RS)-2-[(2-amino-ethoxy)-methyl]-6-methyl-1,4-dihydropyridine-3,5-dicarboxylate]
– | – | 15-40% | CCOc1nc2cccc(C(=O)O)c2n1Cc1ccc(-c2ccccc2-c2nnn[nH]2)cc1 [candesartan]
